In PMC12079500, “An Intracellular Peptide Library Screening Platform Identifies Irreversible Covalent Transcription Factor Inhibitors” (Advanced Science, 2025):
Where “and” joins values, the source holds several entries; their conditions need not be identical. Equal entries are not always repeated. Where two headings read alike, the source gives them in different places. Where a SMILES comes first, the peptide text is derived from it. Bridges are numbered along the chain shown (N, C = ends). The star is where a group is joined. 5FAM = O=C1OC2(c3ccc(O)cc3Oc3cc(O)ccc32)c2ccc(C(=O)*)cc21

Experiments:
[1] = target: T1, cJun (Homo sapiens, UniProt P05412); experiment: CD thermal denaturation of antagonist-cJun heterodimer; assay type: binding; design: LC-MS analysis of the cJun bZIP domain; made in house; conditions: for Antagonist-cJun heterodimer Tm, reduced / Antagonist-cJun heterodimer Tm, oxidised: CD at 222 nm, 1-95 °C, 20 mM potassium phosphate, 150 mM KF; for Antagonist-cJun heterodimer Tm, reduced: pH 7.4, with 5 mM TCEP (reducing); for Antagonist-cJun heterodimer Tm, oxidised: pH 7.4, without TCEP (oxidising), HW31 50 µM + cJun 50 µM; for Antagonist-cJun heterodimer Tm, Δox-red: difference of Tm in oxidising and reducing buffer
T1 sequence (P05412 252-315 limits assumed): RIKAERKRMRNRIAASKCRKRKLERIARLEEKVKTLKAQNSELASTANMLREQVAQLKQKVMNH
Experimental: (§1) Circular dichroism (CD): An Applied Photophysics Chirascan was used for CD measurements, with a 200 µL sample in a 1 mm path length CD cell. Protein/DNA samples were suspended in 20 mM potassium phosphate,150 mM potassium fluoride at pH 7.4 with or without 5 mM TCEP. cJun was added to TRE DNA (5’-[…], Merck) before addition of antagonist peptide and these samples were equilibrated for 30 minutes before measurement.^[13] For full spectra, three scans between 190 and 260 nm (265-320 nm for DNA binding experiments) were collected with a bandwidth of 1 nm and data sampled at a rate of 0.5 s^-1. These scans were averaged and converted to molar residue ellipticities (MRE). Thermal denaturation experiments were performed by measuring the ellipticity at 222 nm over a 1 to 95°C gradient at 1°C increments. Post-melt scans at 20°C confirmed the transitions were reversible as they overlaid within 5% of the pre-melt scan. The resulting thermal denaturation curves were converted to MRE and fitted to a two-state model, derived via modification of the Gibbs–Helmholtz equation to determine the melting temperature (Tm) ^[26].

[2] = target: T2, cJun/TRE DNA (Homo sapiens, UniProt P05412); experiment: CD cJun/TRE DNA antagonism assay (TRE DNA signal at 281 nm); assay type: biochemical; conditions: for IC50: pH 7.4, 30 min equilibration, triplicate data, Hill fit, error one SD; for cJun-TRE DNA IC50, fold improved (oxidised vs reduced): ratio of IC50 reduced / oxidised
T2 construct: LC-MS analysis of the cJun bZIP domain; made in house
T2 sequence (P05412 252-315 limits assumed): as above
Excerpt: CD antagonism experiments were next carried out, as previously described,^[ [13], [18] ^] whereby the structure of a TRE DNA duplex was monitored by following a peak at 281 nm, which shifts upon binding to cJun. The introduction of antagonist to the sample causes the peak to shift back to its unbound signal in a dose‐dependent manner as the cJun is sequestered, leaving unbound DNA in its original structure (Figure S9, Supporting Information). As there is no protein absorbance in this region of the CD spectrum, this measures DNA structure only and produces a simple readout of the proportion of free/cJun‐bound DNA at different antagonist concentrations. By fitting these plots to a Hill equation (OriginPro), IC50 values for HW1, HW29, and HW31 were determined in both reducing and oxidizing conditions (Table S1, Supporting Information; Figure 3C).
as §1

[3] = target: cJun; conditions: cited from earlier work
Excerpt: We previously developed cJun peptide antagonists using a Transcription Block Survival (TBS) assay (Figure 1B).^[ [13] ^] This intracellular peptide library screening platform moves beyond conventional peptide screening systems by selecting peptides based on their ability to not only bind to the target but to meet the more demanding task of functionally antagonizing it by i) binding and, more importantly, ii) blocking its ability to form protein‐DNA interactions.

[4] = system: SK-MEL-28 cells; experiment: Cell imaging of FAM-peptide uptake; assay type: cell-based, human; conditions: SK-MEL-28, 10 and 30 µM, 6 h, 37 °C, fixed, DAPI counterstain, fluorescence microscopy
Experimental: Cell imaging: Cells were seeded at 40,000 cells per well in a […] and incubated for 24 hours before treatment with vehicle (1% DMSO in water) or peptide for 6 hours. The media was removed and the cells were washed 3x with PBS. 1 mL of paraformaldehyde (80 mg/mL in PBS) was added and incubated at room temperature for 10 minutes. The paraformaldehyde was removed and fixed cells were washed with 3x PBS. 500 µL of DAPI (1 µg/mL) was then added and incubated at room temperature for 5 minutes following by a 3x PBS wash. Cells were imaged using an Evos FL digital inverted fluorescence microscope using brightfield and both GFP (for the FAM label) and DAPI fluorescence filters.

[5] = target: T1, cJun; experiment: ESI-MS of HW31 + cJun mixture; assay type: binding; design: LC-MS analysis of the cJun bZIP domain; made in house; conditions: HW31 50 µM + cJun 50 µM, oxidising conditions; reduced back by TCEP
Experimental: A mixture of HW31 (50 µM) and cJun (50 µM, Figure S4, Supporting Information) was first shown to form a disulphide‐bridged complex by ESI‐MS, which could be reduced back to the separate species by the addition of TCEP (Figure S5, Supporting Information). Further, an Alphafold 3 prediction of HW31 (prediction without lactam bridge) bound to cJun indicates the complex forms the predicted coiled coil interaction with the formation of a disulphide between cJun C269 and HW31 C2 (Figure 3A; Figure S6, Supporting Information).^[ [17] ^] The interaction was next characterized using circular dichroism (CD) experiments in both oxidizing and reducing conditions. The mixing of HW31 and cJun in both conditions provided a clear increase in helicity, indicative of a binding interaction (Figure S7, Supporting Information). The measured HW31‐cJun heterodimer complex was ≈10% more helical in the oxidized buffer relative to the reduced. […] Analytical size exclusion chromatography further validated HW31/cJun binding and confirmed the formation of a 1:1 stoichiometric complex (Figure S8, Supporting Information).

[6] = target: T1, cJun; experiment: CD spectra (helicity) of HW31-cJun mixture; assay type: binding; design: LC-MS analysis of the cJun bZIP domain; made in house; conditions: oxidised vs reduced buffer
Experimental: as §1

[7] = oxidising buffer (no TCEP), read-out: cJun-TRE DNA IC50, oxidised
[8] = reducing buffer (5 mM TCEP), read-out: cJun-TRE DNA IC50, reduced

Molecule | Antagonist-cJun heterodimer Tm, reduced [1] | Antagonist-cJun heterodimer Tm, oxidised [1] | Antagonist-cJun heterodimer Tm, Δox-red [1] | IC50 [2, 7] [µM] | cJun-TRE DNA IC50, fold improved (oxidised vs reduced) [2] | IC50 [2, 8] [µM] | Kd ([3]; read-out: Affinity for cJun) [µM] | Cellular uptake (FAM fluorescence within cells) [4] | Kd ([3]; read-out: Previously determined affinity for cJun) [µM] | Disulphide formation with cJun [5] | Increase in helicity of the HW31-cJun heterodimer complex in oxidized buffer relative to reduced [6]
Ac-LEQRAEELARENEELEKEAEELVVEEDVLEEEIEQLEERNYALRKEIEDLQKQLEKL-NH2 [HW1, reference compound] | 73 °C | 70 °C | -3 °C | 11.8 ± 0.3 | 1 | 13.8 ± 0.3 | 0.00021 | – | – | – | –
CC(C)[C@H](NC(=O)[C@H](CCCCN)NC(=O)[C@H](CCCNC(=N)N)NC(=O)[C@H](CCCCN)NC(=O)[C@H](CCCCN)NC(=O)[C@H](CCCCN)NC(=O)[C@@H]1CCCN1C(=O)c1ccc2c(c1)C(=O)OC21c2ccc(O)cc2Oc2cc(O)ccc21)C(=O)N[C@@H](Cc1ccc(O)cc1)C(=O)NCC(=O)N[C@@H](CCCNC(=N)N)C(=O)N[C@@H](CCCCN)C(=O)N[C@@H](CCCCN)C(=O)N[C@@H](CCCNC(=N)N)C(=O)N[C@@H](CCCNC(=N)N)C(=O)N[C@@H](CCC(N)=O)C(=O)N[C@@H](CCCNC(=N)N)C(=O)N[C@@H](CCCNC(=N)N)C(=O)N[C@@H](CCCNC(=N)N)C(N)=O [FAM-NLSTAT, reference compound] (5FAM-PKKKRKVYGRKKRRQRRR-NH2) | – | – | – | – | – | – | – | FAM fluorescence was observed within the cells | – | – | –
CC[C@H](C)[C@H](NC(=O)[C@H](CCC(=O)O)NC(=O)[C@H](CCCCN)NC(=O)[C@H](CCCNC(=N)N)NC(=O)[C@H](CC(C)C)NC(=O)[C@H](C)NC(=O)[C@H](Cc1ccc(O)cc1)NC(=O)[C@H](CC(N)=O)NC(=O)[C@H](CCCNC(=N)N)NC(=O)[C@H](CCC(=O)O)NC(=O)[C@H](CCC(=O)O)NC(=O)[C@H](CC(C)C)NC(=O)[C@H](CCC(N)=O)NC(=O)[C@H](CCC(=O)O)NC(=O)[C@@H](NC(=O)[C@H](CCC(=O)O)NC(=O)[C@H](CCC(=O)O)NC(=O)[C@H](CCC(=O)O)NC(=O)[C@H](CC(C)C)NC(=O)[C@@H](NC(=O)[C@H](CC(=O)O)NC(=O)[C@H](CCC(=O)O)NC(=O)[C@H](CCC(=O)O)NC(=O)[C@@H](NC(=O)[C@@H](NC(=O)[C@H](CC(C)C)NC(=O)[C@H](CCC(=O)O)NC(=O)[C@H](CCC(=O)O)NC(=O)[C@H](C)NC(=O)[C@H](CCC(=O)O)NC(C)=O)C(C)C)C(C)C)C(C)C)[C@@H](C)CC)C(=O)N[C@H]1CCCCNC(=O)C[C@@H](C(=O)N[C@@H](CCC(N)=O)C(N)=O)NC(=O)[C@H](CCC(N)=O)NC(=O)[C@H](CC(C)C)NC(=O)[C@H](CC(=O)O)NC1=O [HW29, reference compound] (Ac-EAEELVVEEDVLEEEIEQLEERNYALRKEIKDLQDQ-NH2; lactam 31-35) | 68 °C | 66 °C | -2 °C | – | 1 | – | – | – | 0.087 ± 0.017 | – | –
CC[C@H](C)[C@H](NC(=O)[C@H](CCC(=O)O)NC(=O)[C@H](CCCCN)NC(=O)[C@H](CCCNC(=N)N)NC(=O)[C@H](CC(C)C)NC(=O)[C@H](C)NC(=O)[C@H](Cc1ccc(O)cc1)NC(=O)[C@H](CC(N)=O)NC(=O)[C@H](CCCNC(=N)N)NC(=O)[C@H](CCC(=O)O)NC(=O)[C@H](CCC(=O)O)NC(=O)[C@H](CC(C)C)NC(=O)[C@H](CCC(N)=O)NC(=O)[C@H](CCC(=O)O)NC(=O)[C@@H](NC(=O)[C@H](CCC(=O)O)NC(=O)[C@H](CCC(=O)O)NC(=O)[C@H](CCC(=O)O)NC(=O)[C@H](CC(C)C)NC(=O)[C@@H](NC(=O)[C@H](CC(=O)O)NC(=O)[C@H](CCC(=O)O)NC(=O)[C@H](CCC(=O)O)NC(=O)[C@@H](NC(=O)[C@@H](NC(=O)[C@H](CC(C)C)NC(=O)[C@H](CCC(=O)O)NC(=O)[C@H](CCC(=O)O)NC(=O)[C@H](CS)NC(=O)[C@H](CCC(=O)O)NC(C)=O)C(C)C)C(C)C)C(C)C)[C@@H](C)CC)C(=O)N[C@H]1CCCCNC(=O)C[C@@H](C(=O)N[C@@H](CCC(N)=O)C(N)=O)NC(=O)[C@H](CCC(N)=O)NC(=O)[C@H](CC(C)C)NC(=O)[C@H](CC(=O)O)NC1=O [HW31] (Ac-ECEELVVEEDVLEEEIEQLEERNYALRKEIKDLQDQ-NH2; lactam 31-35) | 66.6 °C and 67 °C | 81.2 °C and 81 °C | 14.6 °C and 14 °C | 12.1 ± 0.3 | 4 | 48.3 ± 1.8 | – | – | – | covalent attachment via a disulphide | ≈ 10%
